Source: patent publication US20090252716A1, “METHODS FOR IDENTIFYING NUCLEAR RECEPTOR/LIGAND COMBINATIONS FOR TARGETING BRAIN TUMOR STEM CELLS AND FOR THEIR USE” (Clarian Health Partners, Inc. d/b/a Methodist Research …, priority 2008, published 2009)

Experiments:
[1] = test system: U87MG and T98G human glioma cells, their respective BTSC's, and CD133+ cells; test: Proliferation of glioma cells, BTSC's and CD133+ cells, result in words; assay type: cell-based
Protocol: (§1) The use of nuclear receptor agonists in the treatment of brain tumors was examined by testing the effect of the specific ligands on the proliferation of brain tumor and BTSC'S. Prior to studying the anti-tumor effect of melatonin, it was necessary to determine the viability of glioma and BTSC's in the cultures used in this study. […] Their proliferation was measured by WST-1 assay. The ligands for all six nuclear receptors induced anti-proliferative activity in brain tumor stem cells as well as human glioma cells. It was also noted that the selected nuclear receptor agonists induced anti-tumor activity in brain tumor stem cells and that the different agonists for the highly altered nuclear hormone receptors provided different levels of inhibition for brain tumor cells and BTSC's in cultures. As a result, the nuclear hormone receptors having altered expression and activation profile in BTSC can be selected to specifically target BTSC's. Additional information regarding the individual studies is provided below:
(§2) Proliferation assay. Proliferation of gliosphere cells was measured using WST-1 assay (Roche Applied Sciences, Indianapolis, Ind.) and ^3H thymidine uptake assay. Briefly, T98G and U87MG glioma and gliosphere cells were cultured in 96-well tissue culture plates (1×10^4/200 μl/well) in neurobasal medium with B27 serum supplement in the presence of 10 ng/ml EGF+bFGF and increasing doses of nuclear receptors in 5% CO2-incubator at 37° C. After 48 hrs, WST-1 reagent ([…]) was added and the absorbance was measured at 460 nm using 2100 microplate reader (Alpha Diagnostics Inc., San Antonio, Tex.) as a measure of viable cell count. This assay is based on the cleavage of the tetrazolium salt, WST-1, by mitochondrial dehydrogenases in viable cells and a decrease in OD corresponds to decrease in viable cell count. In some experiments, ^3H thymidine (0.5 μCi/ml) was added at 48 hours, the cells harvested after 72 hours using a Tomtech harvester 96 (Hamden, Conn., USA) and the amount of ^3H thymidine uptake counted on a Perkin Elmer Microbeta liquid scintillation counter to provide a measure of proliferation.

U87MG tumorspheres = test: Tumorsphere formation from U87MG cells in NBM; assay type: cell-based, human; settings: NBM with B27, EGF+bFGF
Protocol: FIG. 9B, first panel, illustrates cells of U87MG cultured in DMEM. Cells cultured in NBM with B27 supplement in the presence of EGF+bFGF developed into tumorspheres within 3-5 days (see FIG. 9A, middle panel).
(§3) Gliosphere culture. To generate gliospheres, the following standardized method was utilized. Briefly, U87MG and T98G glioblastoma cells were dissociated from DMEM cultures using trypsin-EDTA solution and reseeded in neurobasal medium (NBM) supplemented with B27 in the presence of 10 ng/ml bFGF and EGF. The cells (5×10^4/ml/well) were cultured in 12 well plates in 5% CO2-incubator at 37° C. with a medium change of every 2-3 days. The cells were photographed (200× and 400×) under phase contrast microscope (AX70, Olympus Optical, Japan) after 10-12 days. The primary human glioblastoma cells were also dissociated from DMEM using trypsin-EDTA. The cells were cultured (1×10^5 cells/ml/well) in neurobasal medium (NBM) supplemented with B27 in the presence of 10 ng/ml of bFGF and EGF in 12 well plates in 5% CO2-incubator at 37° C. The resulting tumorspheres were photographed under light microscope.

T98G tumorspheres = test: Tumorsphere formation from T98G glioblastoma cells in NBM; assay type: cell-based, human; settings: NBM with B27, EGF+bFGF
Protocol: Initially culture conditions were established for expanding BTSC's as tumorspheres from brain tumor cells in culture. […] The resulting tumorspheres increased substantially in size within 7 to 10 days. FIG. 1 illustrates typical glioblastoma cells cultured in DMEM supplemented with 10% FBS and the corresponding tumorspheres cultured in neurobasal medium (NBM) with B27 supplement and 10 ng/ml EGF+bFGF. The tumorspheres illustrated in FIG. 1 were photographed after 10 days (200×).
as §3

T98G human glioma cells = test: WST-1 proliferation assay, T98G glioma cells; assay type: cell-based; settings: anti-tumor activity, 48 hours, read-out: EC50, T98-glioma
Protocol: as §1
(§4) Cell culture. The U87MG and T98G brain tumor cell-lines, established from human glioblastoma (Ponten, et al., 1968) were obtained from American Type Culture Collection (ATCC, Manassas, Va.). The cells were cultured in Dulbecco's Modified Eagle Medium (DMEM) (Invitrogen, California, USA) supplemented with 10% FBS, 1 mM Sodium pyruvate, 100 U/ml penicillin G, 100 μg/ml Streptomycin, 2 mM glutamine, 1 mM MEM nonessential amino acids and 50 μM 2-mercaptoethanol in 5% CO2 incubator at 37° C. The cells were dissociated using 0.25% trypsin, 0.53 mM EDTA solution and sub-cultured once in 3-5 days. Primary brain tumor tissue/cells were also obtained from the tissue repository at Methodist Research Institute and cultured (1×10^5 cells/ml/well) in DMEM medium supplemented with 10% FBS and sub-cultured once in 10-12 days.
as §2, with “This assay is based on the cleavage of the tetrazolium salt, WST-1, by mitochondrial dehydrogenases in viable cells and a decrease in OD corresponds to decrease in viable cell count.” left out

[2] = test system: T98G BTSC's (brain tumor stem cells); test: WST-1 proliferation assay, T98G BTSC's; assay type: cell-based; settings: Homo sapiens, anti-tumor activity, 48 hours, read-out: EC50, T98-BTSC
Protocol: (§5) The use of nuclear receptor agonists in the treatment of brain tumors was examined by testing the effect of the specific ligands on the proliferation of brain tumor and BTSC'S. Prior to studying the anti-tumor effect of melatonin, it was necessary to determine the viability of glioma and BTSC's in the cultures used in this study. […] Their proliferation was measured by WST-1 assay. […] Additional information regarding the individual studies is provided below:
as §3
(§6) Proliferation assay. Proliferation of gliosphere cells was measured using WST-1 assay (Roche Applied Sciences, Indianapolis, Ind.) and ^3H thymidine uptake assay. […] After 48 hrs, WST-1 reagent ([…]) was added and the absorbance was measured at 460 nm using 2100 microplate reader (Alpha Diagnostics Inc., San Antonio, Tex.) as a measure of viable cell count. […] In some experiments, ^3H thymidine (0.5 μCi/ml) was added at 48 hours, the cells harvested after 72 hours using a Tomtech harvester 96 (Hamden, Conn., USA) and the amount of ^3H thymidine uptake counted on a Perkin Elmer Microbeta liquid scintillation counter to provide a measure of proliferation.

U87-CD133+ cells = test: WST-1 proliferation assay, U87-CD133+ cells; assay type: cell-based; settings: Homo sapiens, anti-tumor activity, 48 hours
Protocol: as §1
(§7) Isolation and expansion of CD133+ BTSC: The CD133+ BTSC were isolated from human glioblastoma cells by magnetic bead technique using CD133 antibody (Miltenyi Biotec, Auburn, Calif., USA). The U87MG and T98G glioma cells and tumor spheres expanded as described above were dissociated by treatment with Trypsin-EDTA solution at 37° C. for 10 minutes. The cells (1×10^7 cells) were washed in cold sterile PBS, re-suspended in 100 μl blocking buffer (PBS, pH 7.2, 0.5% BSA, 2 mM EDTA) with 50 μl of FcR blocking reagents (Miltenyi Biotech, Auburn, Calif., USA) and incubated at 4° C. for 30 minutes. The cells were washed and re-suspended in 200 μl of anti-PE microbeads in the buffer and incubated at 4° C. for 30 minutes. The CD133+ cells were separated by passing through an LS column in the midi Macs separation unit. The column effluent was collected to provide a CD133 negative population. The columns were washed with buffer, removed from the Mac separation unit and placed in a sterile 15 ml tube. […] The cells obtained were counted and expanded in culture or used directly for the experiments described herein.
as §6

T98G-CD133+ cells = test: WST-1 proliferation assay, T98G-CD133+ cells; assay type: cell-based; settings: Homo sapiens, anti-tumor activity, 48 hours
Protocol: as §1, §7, §6

U87MG human glioma cells = test: WST-1 proliferation assay, U87 glioma cells; assay type: cell-based; settings: U-87 MG, anti-tumor activity, 48 hours
Protocol: as §1, §4
as §2, with “This assay is based on the cleavage of the tetrazolium salt, WST-1, by mitochondrial dehydrogenases in viable cells and a decrease in OD corresponds to decrease in viable cell count.” left out

[3] = test system: U87 BTSC's (brain tumor stem cells); test: WST-1 proliferation assay, U87 BTSC's; assay type: cell-based; settings: Homo sapiens, anti-tumor activity, 48 hours
Protocol: as §5, §3, §6

Structure (SMILES) | proliferation of glioma cells and BTSC's [1] | tumorsphere size and number, U87MG (U87MG tumorspheres) | number and size of T98G tumorspheres (T98G tumorspheres) | EC50 (T98G human glioma cells) [µM] | EC50 [2] [µM] | EC50 (U87-CD133+ cells) [µM] | EC50 (T98G-CD133+ cells) [µM] | EC50 (U87MG human glioma cells) [µM] | EC50 [3] [µM]
CCCCCC=CC=C1C(=O)C=C[C@@H]1CC=CCCCC(=O)O [15d-PGJ2, 15-deoxy Δ^12,14-prostaglandin J2] | inhibited the proliferation | significantly decreased |  |  |  |  |  |  | 
CCCC(=O)SCCNC(=O)CCNC(=O)[C@H](O)C(C)(C)COP(=O)(O)OP(=O)(O)OC[C@H]1O[C@@H](n2cnc3c(N)ncnc32)[C@H](O)[C@@H]1OP(=O)(O)O [Butyryl CoA] | dose-dependent decrease in the proliferation |  | significant and dose-dependent decrease | 85 ± 5.59 | 85.5 ± 22.4 | 17.6 ± 0.29 | 54.7 ± 5.76 | 20.3 ± 0.57 | 72.5 ± 1.57
Clc1ccc(-c2nc3sccn3c2/C=N/OCc2ccc(Cl)c(Cl)c2)cc1 [CITCO] | inhibits the proliferation |  | significant and dose-dependent decrease |  |  |  |  |  | 
O=C(O)Cc1cccc(OCCCN(Cc2cccc(C(F)(F)F)c2Cl)CC(c2ccccc2)c2ccccc2)c1 [GW3965] | inhibits the proliferation |  | significant and dose-dependent decrease | 4.85 ± 1 | 12.2 ± 3.04 | 2.96 ± 0.21 | 3.28 ± 0.64 | 4.22 ± 0.23 | 1.55 ± 0.43
COc1ccc2[nH]cc(CCNC(C)=O)c2c1 [Melatonin] | inhibits the proliferation |  | significant and dose-dependent decrease | 31 ± 12 | 44.7 ± 6.18 | 2.6 ± 0.25 | 2.45 ± 0.43 | 18.66 ± 0.18 | 7.91 ± 1.34
CO[C@H]1/C=C/O[C@@]2(C)Oc3c(C)c(O)c4c(O)c(c(/C=N/N5CCN(C)CC5)c(O)c4c3C2=O)NC(=O)/C(C)=C\C=C\[C@H](C)[C@H](O)[C@@H](C)[C@@H](O)[C@@H](C)[C@H](OC(C)=O)[C@@H]1C [Rifampicin] |  |  |  | 12.8 ± 1.97 |  | 1.2 ± 0.2 | 1.99 ± 0.47 | 25.4 ± 4 | 
